Laboratory results: US20220354911A1, “TREATMENT OF TUMORS BY A COMBINATION OF AN ONCOLYTIC ADENOVIRUS, A CDK4/6 INHIBITOR AND A FURTHER THERAPEUTICALLY ACTIVE AGENT” (KLINIKUM RECHTS DER ISAR DER TECHNISCHEN UNIVERSITÄT MÜNCHEN, priority 2019, published 2022)

Legend:
Rb, phRB and E2F1 = assay: Western blot of UMUC cells treated with cell cycle inhibitors; format: cell-based, human; conditions: 24 hours post-treatment, LEE-011 at 10 μM, MI-1040 at 1 μM
Procedure: Western Blot analysis of UMUC cells treated with indicated concentrations of CI-1040, Roscovitine, Nutlin-3a and LEE011 (Ribociclib). 1×10^6 cells were seeded in 10 cm dishes. 24 hours post-treatment proteins were isolated using 1% SDS buffer, to achieve the disruption of the nuclear membrane. All samples were drawn up several times into a syringe to disrupt the DNA and subsequently centrifuged at 30000 rpm at 4° C. for 30 minutes. The supernatant was transferred to a new reaction tube and directly used for further steps or stored at −80° C. To separate the proteins a sodium dodecyl sulfate polyacrylamide gel electrophoresis was performed. By means of electrophoresis for approximately two hours at 100V at 4° C., 40 μg of total proteins were loaded and probed against specific indicated antibodies.

UMUC3 cells = assay: Cell cycle analysis (flow cytometry) of UMUC3 cells; format: cell-based, human; conditions: UMUC3, 48 hours; Roscovitine 10 μM, CI-1040 1 μM, Nutlin-3a 10 μM, LEE011 10 μM; 10 MOI dl703
Procedure: FIG. 10 is a bar diagram showing cell cycle distribution in UMUC3 cells, measured 48 hours post treatment, whereby the concentrations of the […] inhibitors was as follows: Roscovitine: 10 μM, CI-1040: 1 μM, Nutlin-3a: 10 μM, and LEE011: 10 μM.
For cell cycle analysis cells were seeded in 6 well plates (2.5×10E4 c/well). 8 hours before infection with dl703, cells were treated with indicated concentration of cell cycle inhibitors. After infection with 10 MOI dl703 cells were again treated for 48 hours. Untreated cells and dl703 infected cells only, served as control. 48h post infection cells were harvest by trypsinization and fixed with 80% ethanol while vortexing. To investigate the cell cycle status, fixed cells were centrifuged 5 min at RT and 300 g and ethanol was aspirated. Cells were resuspended and washed with 1% BSA-PBS (Bovine Serum Albumin) and again centrifuged. Cells were stained with EDU and cell cycle analysis were performed using the Click-iT™ Plus EdU Flow Cytometry Assay Kits, Catalog nos. C10632 from Thermo Fischer. In addition, after 3× times washing with 1% BSA/PBS cells were stained with PI (Propidium Iodine, 50 μg/ml). Measurement was directly performed after staining with a FACScalibur Flow Cytometry System. Data was analyzed with FlowJo software.

LN229 cells = assay: Western blot of XVir-N-31 infected LN229 cells, LEE011 and JQ1; format: cell-based
Procedure: 2.5×10^5 LN229 cells were seeded in 10 cm plates in DMEM medium. The following day the cells were treated with 500 nM LEE011 and 200 nM JQ1 or a combination of both. At the next morning the cells were infected with XVir-N-31 at 20 MOI. One hour after infection DMEM Medium containing the inhibitors was added on the cells. After each time point (24, 48, 72 hours) the cells were put on ice, washed twice with ice-cold PBS and 300 μl of SDS Protein Lysis Buffer was added. The cells were transferred to reaction tubes and the DNA sheared with a syringe and a needle and the supernatant transferred for further use after centrifugation. The protein concentration was measured with a BCA assay and samples with 4× Lämmli:DTT 6:1 and a concertation of 20 μg were produced and transferred to a 10% SDS gel. The gel electrophoresis started at 90V and was increased to 150V after the ladder started to separate. The proteins on the gel were blotted to a membrane for 2 hours at 100V and blocked in 5% milk in TBS-T for 1 hour at RT. After washing in TBS-T, the first antibody was added according to the manufacturer's information over night at 4° C. The used antibodies were directed to GAPDH, E1A, DBP, E2F1, Rb, pRb for all time points, and caspase 3 and the full length and cleaved version of PARP additionally for the 72 hours samples. The next day, the washing was repeated and the secondary antibody added for 1 hour at RT. Following the washing, ECL was used to image the chemiluminescence by the ChemiDoc™ MP Imaging System.

[1] = system: U87 cells, LN229 cells or T98G cells; assay: SRB cell survival in glioblastoma cells, XVir-N-31, JQ1 and LEE011; format: cell-based; conditions: all three glioblastoma cell lines
Procedure: 2×10^4 cells (U87 cells, LN229 cells or T98G cells) were seeded in 12 well plates in DMEM medium and inhibitor treated at the next day. 48 hours post seeding the cells were infected with XVir-N-31. After 4 days the cells were fixated using 10% TCA. The plates were stained using a 0.1% SRB solution. The surplus was removed and the plates were washed with 1% acetic acid. After removing the acetic acid, the plates were air dried overnight. The SRB was solved in 1 ml of a 10 mM Tris Base solution and a 1:10 dilution was measured using a photometer at 560 nm.

dl703 = assay: E1A-independent viral DNA replication of dl703 (fiber qPCR); format: cell-based, Mastadenovirus, Type C, Serotype 5; conditions: UMUC cells, 10 μM Lee, 50 MOI dl703, 48 hours post infection
Procedure: To investigate the differences in replication of dl703 (Mantwill et al. 2013, Journal of Translational Medicine, 11, 216) under different treatment conditions, DNA-replication analysis was performed. 100,000 UMUC cells were seeded in 6-well plates and grown in DMEM medium containing 10% FCS in 5% CO2 conditions at 37° C. 24 hours post seeding cells were treated for 24 hours with 10 μM Lee (Ribociclib), 1 μM CI-1040, 10 μM Nutlin-3a and 10 μM Roscovertine and again after infection adding an appropriate amount of inhibitors to the medium. Infection with 50 MOI dl703 (Mastadenovirus, Type C, Serotype 5 with a 3.2 kb sized deletion in E1 region) took place 24 hours post treatment. After 4 and 48 hours post infection DNA were isolated and qPCR was performed using specific primers for the viral fiber gene. Fiber fwd. 5′-[…]-3′ (SEQ ID NO: 17); Fiber rev. 5′-[…]-3′ (SEQ ID NO: 18).

[2] = LN229, with XVir-N-31, 48 hours post infection
[3] = LN229, with XVir-N-31, 72 hours post infection

`CN(C)C(=O)c1cc2cnc(Nc3ccc(N4CCNCC4)cn3)nc2n1C1CCCC1` [LEE011] was tested, and the “Rb, phRB and E2F1 expression” value (Rb, phRB and E2F1) was “induced inhibition”, the cell cycle distribution (UMUC3 cells) was “clear G1-arrest” and the “viral proteins E1A and DBP” value (LN229 cells; LN229, XVir-N-31 MOI 20, 500 nM LEE011 or/and 200 nM JQ-1, 24 hours post infection) was “increased”. For the same compound, the “viral proteins E1A and DBP” value (LN229 cells; LN229, XVir-N-31 MOI 20, 500 nM LEE011 or/and 200 nM JQ-1, 48 hours post infection) was “increased”, the “viral proteins E1A and DBP” value (LN229 cells; LN229, XVir-N-31 MOI 20, 500 nM LEE011 or/and 200 nM JQ-1, 72 hours post infection) was “increased” and the “cellular proteins Rb and pRb” value (LN229 cells; LN229, with XVir-N-31, 24 hours post infection) was “remained inhibited”. The E2F-1 (LN229 cells; [2]) was “stabilized”, the “cellular proteins Rb and pRb” value (LN229 cells; [2]) was “remained inhibited” and the E2F1 (LN229 cells; [3]) was “enhanced”. For the same compound, the “cellular protein Rb” value (LN229 cells; [3]) was “decreased”, the “presence of cleaved PARP” value (LN229 cells; XVir-N-31 infected LN229 cells, 72 hours post infection) was “increased” and the “cell killing on addition of LEE011 to JQ1 and XVir-N-31” value [1] was “increased even further”. The “increase of viral DNA replication of dl703” value (dl703) was ~100 fold.
